Experimental data reported in patent US12303497B2, “Anti-androgens for the treatment of metastatic castration-sensitive prostate cancer” (priority 2019, dated 2025).

How the values were obtained:
[1] = Leuprolide PK sub-study in mCSPC subjects receiving leuprolide acetate; type: in vivo, human
From the text: Optional PK samples were/will be collected from at least 60 consenting subjects (in selected countries) who received or will receive leuprolide acetate as the GnRHa at the time of randomization. Samples were/will be collected on Day 1 of Cycles 1, 3, 4, 5, and 6 for analysis of leuprolide and testosterone concentrations.
Descriptive statistics of leuprolide PK data will be summarized by treatment groups (with apalutamide or placebo) and dose of leuprolide acetate. […] The percentage of subjects with testosterone levels <50 ng/dL will be summarized descriptively by treatment groups.

[2] = test system: mouse xenograft models of prostate cancer; assay: Mouse xenograft models of prostate cancer; type: in vivo; conditions: decreased tumor cell proliferation and increased apoptosis
[3] = Effect of food on apalutamide pharmacokinetics (healthy subjects); type: in vivo, human
Experimental: Median time to reach tmax was delayed approximately 2 hours with food.

[4] = Ionization under physiological pH; type: physicochemical; conditions: relevant physiological pH condition
CYP2C8 [5] = target: T1, CYP2C8 (Homo sapiens, UniProt P10632); assay: In vitro CYP inhibition
T1 sequence (P10632 1-490): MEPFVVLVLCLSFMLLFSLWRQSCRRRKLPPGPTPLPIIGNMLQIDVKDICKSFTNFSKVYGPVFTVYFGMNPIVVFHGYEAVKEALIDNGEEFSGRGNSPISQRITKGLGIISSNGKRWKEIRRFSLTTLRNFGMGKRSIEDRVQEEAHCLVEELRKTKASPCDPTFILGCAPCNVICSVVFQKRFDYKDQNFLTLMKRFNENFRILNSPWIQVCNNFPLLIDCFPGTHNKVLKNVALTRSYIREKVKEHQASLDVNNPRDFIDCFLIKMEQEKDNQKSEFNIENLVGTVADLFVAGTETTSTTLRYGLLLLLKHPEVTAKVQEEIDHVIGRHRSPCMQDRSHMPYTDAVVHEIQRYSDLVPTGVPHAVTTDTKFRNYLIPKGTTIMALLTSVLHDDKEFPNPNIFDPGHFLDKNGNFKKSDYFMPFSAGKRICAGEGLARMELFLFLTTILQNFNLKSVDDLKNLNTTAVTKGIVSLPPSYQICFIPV

CYP1A2 = CYP1A2 (Homo sapiens, UniProt P05177); assay: In vitro effect on CYP; conditions: therapeutically relevant concentrations
CYP2C19 = CYP2C19 (Homo sapiens, UniProt P33261); assay: In vitro CYP inhibition
CYP2C8 [6] = target: T1, CYP2C8; assay: Contribution of CYP2C8 in the metabolism of apalutamide; design: endogenous in cells; host or cells: human subjects, in vivo; conditions: estimated
From the text: Metabolism is the main route of elimination of apalutamide.

[7] = target: organic cation transporter 2 (OCT2) (Homo sapiens, UniProt O15244); assay: In vitro transporter inhibition
[8] = Solubility in aqueous media; type: physicochemical; conditions: aqueous media over a wide range of pH values
From the text: The chemical name is (4-[7-(6-Cyano-5-trifluoromethylpyridin-3-yl)-8-oxo-6-thioxo-5,7-diazaspiro[3.4]oct-5-yl]-2-fluoro-N-methylbenzamide). Apalutamide is a white to slightly yellow powder.

rat bone marrow = assay: In vivo rat bone marrow micronucleus assay
CYP2D6 = CYP2D6 (Homo sapiens, UniProt P10635); assay: In vitro effect on CYP; conditions: therapeutically relevant concentrations
rat = assay: In vivo rat Comet assay
BCRP/OATP1B1 = assay: Co-administration of ERLEADA with rosuvastatin (BCRP/OATP1B1 substrate); conditions: in vivo
[9] = target: organic anion transporter 1 (Homo sapiens, UniProt Q4U2R8); assay: In vitro transporter inhibition
organic anion transporter 1, sequence (Q4U2R8 whole entry): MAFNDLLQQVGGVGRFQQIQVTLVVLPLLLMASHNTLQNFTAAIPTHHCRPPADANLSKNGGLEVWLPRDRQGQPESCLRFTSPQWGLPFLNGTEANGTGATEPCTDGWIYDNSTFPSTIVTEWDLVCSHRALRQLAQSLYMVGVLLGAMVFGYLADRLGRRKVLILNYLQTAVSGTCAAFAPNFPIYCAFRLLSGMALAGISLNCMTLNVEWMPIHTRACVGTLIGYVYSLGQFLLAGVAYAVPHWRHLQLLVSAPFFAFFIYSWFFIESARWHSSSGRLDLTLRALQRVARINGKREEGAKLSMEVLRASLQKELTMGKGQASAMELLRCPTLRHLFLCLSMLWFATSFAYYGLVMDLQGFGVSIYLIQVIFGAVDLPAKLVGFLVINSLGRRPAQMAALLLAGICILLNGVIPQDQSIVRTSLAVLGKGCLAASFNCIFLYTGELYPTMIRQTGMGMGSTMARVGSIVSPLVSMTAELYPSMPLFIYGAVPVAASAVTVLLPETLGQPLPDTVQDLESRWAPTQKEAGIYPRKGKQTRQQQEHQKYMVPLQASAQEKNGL

CYP1A2, sequence (P05177 whole entry): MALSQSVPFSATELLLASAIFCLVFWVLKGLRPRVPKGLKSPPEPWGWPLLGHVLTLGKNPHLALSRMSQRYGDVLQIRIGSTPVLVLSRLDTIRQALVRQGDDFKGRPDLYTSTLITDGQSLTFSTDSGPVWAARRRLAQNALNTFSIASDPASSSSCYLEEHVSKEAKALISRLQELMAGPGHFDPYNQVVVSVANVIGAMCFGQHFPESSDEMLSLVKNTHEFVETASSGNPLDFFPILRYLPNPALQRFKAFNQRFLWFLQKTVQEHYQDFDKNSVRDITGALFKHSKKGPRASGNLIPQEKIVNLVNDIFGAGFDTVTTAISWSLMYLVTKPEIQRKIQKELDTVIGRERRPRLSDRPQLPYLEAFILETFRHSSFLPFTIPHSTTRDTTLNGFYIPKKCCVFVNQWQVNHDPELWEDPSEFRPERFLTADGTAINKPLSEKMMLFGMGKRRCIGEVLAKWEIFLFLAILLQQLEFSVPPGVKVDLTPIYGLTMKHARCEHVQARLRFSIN
organic cation transporter 2 (OCT2), sequence (O15244 whole entry): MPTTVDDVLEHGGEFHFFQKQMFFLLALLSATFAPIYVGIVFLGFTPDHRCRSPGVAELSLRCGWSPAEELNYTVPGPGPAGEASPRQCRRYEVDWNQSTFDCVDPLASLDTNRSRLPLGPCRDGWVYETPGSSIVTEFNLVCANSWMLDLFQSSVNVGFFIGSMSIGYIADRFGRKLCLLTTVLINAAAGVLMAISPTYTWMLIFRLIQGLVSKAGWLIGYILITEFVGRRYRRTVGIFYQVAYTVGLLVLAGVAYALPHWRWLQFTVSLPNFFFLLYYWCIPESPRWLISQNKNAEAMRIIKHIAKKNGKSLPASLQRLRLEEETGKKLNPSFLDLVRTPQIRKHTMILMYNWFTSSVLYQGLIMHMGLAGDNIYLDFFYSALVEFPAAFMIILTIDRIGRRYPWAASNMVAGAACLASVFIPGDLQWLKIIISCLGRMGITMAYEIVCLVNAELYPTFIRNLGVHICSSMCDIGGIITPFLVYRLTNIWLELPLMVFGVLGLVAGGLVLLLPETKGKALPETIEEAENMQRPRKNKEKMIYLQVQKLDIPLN
CYP2C19, sequence (P33261 whole entry): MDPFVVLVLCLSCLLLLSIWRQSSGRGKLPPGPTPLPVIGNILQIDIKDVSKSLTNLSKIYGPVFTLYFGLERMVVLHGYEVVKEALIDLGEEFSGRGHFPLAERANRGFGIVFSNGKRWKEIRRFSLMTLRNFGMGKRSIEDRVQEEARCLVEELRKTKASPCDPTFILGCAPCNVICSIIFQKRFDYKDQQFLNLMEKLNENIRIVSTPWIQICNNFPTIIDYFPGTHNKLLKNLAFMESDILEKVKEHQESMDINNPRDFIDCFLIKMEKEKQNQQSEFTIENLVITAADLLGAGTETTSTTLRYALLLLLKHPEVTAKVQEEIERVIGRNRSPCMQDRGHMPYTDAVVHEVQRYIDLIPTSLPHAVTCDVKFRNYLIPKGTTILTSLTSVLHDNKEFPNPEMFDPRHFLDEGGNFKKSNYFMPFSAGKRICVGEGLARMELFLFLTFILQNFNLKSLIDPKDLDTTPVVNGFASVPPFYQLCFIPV
CYP2D6, sequence (P10635 whole entry): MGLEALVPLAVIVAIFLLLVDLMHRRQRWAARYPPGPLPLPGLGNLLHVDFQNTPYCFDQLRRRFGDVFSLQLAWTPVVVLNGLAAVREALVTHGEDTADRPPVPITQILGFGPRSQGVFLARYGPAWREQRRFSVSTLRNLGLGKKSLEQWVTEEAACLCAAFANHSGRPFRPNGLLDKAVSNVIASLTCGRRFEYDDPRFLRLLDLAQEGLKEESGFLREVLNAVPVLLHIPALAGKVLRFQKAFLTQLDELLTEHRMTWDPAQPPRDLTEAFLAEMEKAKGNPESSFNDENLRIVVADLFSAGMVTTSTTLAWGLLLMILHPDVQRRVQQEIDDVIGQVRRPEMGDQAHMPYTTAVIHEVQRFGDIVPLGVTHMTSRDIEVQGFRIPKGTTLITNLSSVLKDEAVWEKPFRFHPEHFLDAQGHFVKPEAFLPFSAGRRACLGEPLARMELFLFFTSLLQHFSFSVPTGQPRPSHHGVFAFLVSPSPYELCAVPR

In the case of CNC(=O)c1ccc(N2C(=S)N(c3cnc(C#N)c(C(F)(F)F)c3)C(=O)C23CCC3)cc1F [Apalutamide, 4-[7-(6-cyano-5-trifluoromethylpyridin-3-yl)-8-oxo-6-thioxo-5,7-diazaspiro[3.4]oct-5-yl]-2-fluoro-N-methylbenzamide], the “Effect on the steady-state exposure of leuprolide” value [1] was “no apparent effect”, the Effect on tumors [2] was “decreased tumor volume” and the “Change in Cmax and AUC with a high-fat meal vs fasting” value [3] was “no clinically relevant changes”. The Ionization [4] was “not ionizable”, the CYP2C8 inhibition (CYP2C8 [5]) was “moderate inhibitors” and the “Effect on CYP1A2” value (CYP1A2) was “do not affect”. For the same compound, the CYP2C19 inhibition (CYP2C19) was “weak inhibitors”, the “Contribution of CYP2C8 in the metabolism of apalutamide” value (CYP2C8 [6]; at steady-state) was 40% and the “Contribution of CYP2C8 in the metabolism of apalutamide” value (CYP2C8 [6]; following single dose) was 58%. For the same compound, the “Inhibition of OCT2” value [7] was “inhibit”, the Solubility [8] was “practically insoluble” and the Genotoxicity (rat bone marrow) was “not genotoxic”. The “Effect on CYP2D6” value (CYP2D6) was “do not affect”, the Genotoxicity (rat) was “not genotoxic” and the “Induction of BCRP and OATP1B1, clinically” value (BCRP/OATP1B1) was “weak inducer”. For the same compound, the “Inhibition of organic anion transporter 1” value [9] was “do not inhibit”.
